From US9598433B2, “Hepatitis C virus inhibitors” (BRISTOL-MYERS SQUIBB COMPANY, priority 2012, dated 2017)
Where two headings read alike, the source gives them in different places.

Legend:
[1] = system: HCV genotype 1a (H77 strain) replicon in HUH-7 cells; assay: HCV replicon luciferase reporter assay, genotype 1a; format: cell-based; conditions: Hepatitis C virus, 72 h, genotype 1a replicon, 3 days incubation
Text: (§1) An HCV replicon whole cell system was established as described by Lohmann V, Korner F, Koch J, Herian U, Theilmann L, Bartenschlager R., Science 285(5424):110-3 (1999) and modified to introduce a luciferase reporter, as first described by Krieger et al (Krieger N, Lohmann V, and Bartenschlager R, J. Virol. 75(10):4614-4624 (2001)). CDNA encoding a humanized form of the Renilla luciferase gene and a linker sequence fused directly to the 3′-end of the luciferase gene were introduced into the replicon construct using an Ascl restriction site located in core, directly upstream of the neomycin marker gene. The adaptive mutation at position 1179 (serine to isoleucine) was also introduced (Blight K J, Kolykhalov, A A, Rice, C M, Science 290(5498):1972-1974). A stable cell line constitutively expressing this HCV replicon construct was generated by first linearizing plasmid DNAs with ScaI. RNA transcripts were synthesized in vitro using the T7 MegaScript transcription kit (Ambion, Austin, Tex.) according to manufacturer's directions. In vitro transcripts of the cDNA were transfected into the human hepatoma cell line, HUH-7. […] Resulting cell lines were characterized for positive and negative strand RNA production and protein production over time.
A stable HCV replicon luciferase reporter cell line representing the genotype 1a H77 strain (Yanagi M, Purcell R H, Emerson S U, et al. Transcripts from a single full-length cDNA clone of hepatitis C virus are infectious when directly transfected into the liver of a chimpanzee. Proc Natl Acad Sci USA 1997; 94(16):8738-8743) was generated as described previously for the genotype 1b(Con1) replicon luciferase cell line. The replicon construct was modified by introducing mutations were introduced into the genes encoding the NS3 helicase domain (proline replaced by leucine at position 1496) and NS5A (serine to isoleucine at position 2204) to improve replication in cell culture.
(§2) HCV replicon luciferase assays were developed to monitor the inhibitory effects of compounds described in the disclosure on HCV genotypes 1a and 1b viral replication. HUH-7 cells, constitutively expressing the HCV replicon, were grown in Dulbecco's Modified Eagle Media (DMEM) (Gibco-BRL) containing 10% Fetal calf serum (FCS) (Sigma) and 1 mg/mL G418 (Gibco-BRL). Compounds were serially diluted 3 folds in DMSO for a twenty-point titration and subsequently transferred to sterile 384-well tissue-culture treated plates (Corning cat #3571). The plates were then seeded with 50 μL of cells at a density of 3.0×10^3 cells/well in DMEM containing 4% FCS (final DMSO concentration at 0.5%). After 3 days incubation at 37° C., cells were analyzed for Renilla Luciferase activity using the EnduRen as substrate (Promega cat #E6485). The EnduRen substrate was diluted in DMEM and then added to the plates to a final concentration of 7.5 μM. The plates were incubated for 2 hrs at 37° C. and then read immediately for 30 seconds with Viewlux Imager (PerkinElmer) using a luminescence program. To assess cytotoxicity of compounds, CC50 values were generated by multiplexing the EnduRen-containing plates with Cell Titer-Blue (Promega, cat # G8082). Cell-Titer Blue (3 μL) was added to each well and incubated for 8 hrs at 37° C. The fluorescence signal from each well was read, with an excitation wavelength at 525/10 nm and an emission wavelength of 598/10 nm, using the Viewlux Imager.
(§3) The EC50 values for compounds were calculated by using a four-parameter logistic equation: y=A+((B−A)/(1+((C/x)^D))), where A and B denotes minimal and maximal % inhibition, respectively, C is the EC50, D is the hill slope and x represents compound concentration.

[2] = system: HCV genotype 1b (Con1) replicon in HUH-7 cells; assay: HCV replicon luciferase reporter assay, genotype 1b; format: cell-based; conditions: Hepatitis C virus, 72 h, genotype 1b replicon, 3 days incubation
Text: as §1, §2, §3

| Compound | EC50 ([1]; read-out: LE_1a (EC50)) | EC50 ([1]; read-out: LE_1a (EC50, range)) | EC50 ([2]; read-out: LE_1b (EC50)) | EC50 ([2]; read-out: LE_1b (EC50, range)) |
| --- | --- | --- | --- | --- |
| CC[C@@H]1O[C@H](C)CC/C=C\[C@@H]2C[C@@]2(C(=O)NS(=O)(=O)C2(C)CC2)NC(=O)[C@@H]2C[C@@H](Oc3nccc4cc(OC)c(F)cc34)CN2C(=O)[C@H]1NC(=O)OC(C)(C)C(F)(F)F [Compound 1001] | 1.26 nM | 1.01 to 5 nM | 0.47 nM | 0.1 to 0.5 nM |
| CC[C@@H]1O[C@H](C)CC/C=C\[C@@H]2C[C@@]2(C(=O)NS(=O)(=O)C2(C)CC2)NC(=O)[C@@H]2C[C@@H](Oc3nc(OC)cc4cc(OC)ccc34)CN2C(=O)[C@H]1NC(=O)OC(C)(C)C(F)(F)F [Compound 1002, 1,1,1-trifluoro-2-methylpropan-2-yl ((2R,6S,7S,9R,13aS,14aR,16aS,Z)-2-((3,6-dimethoxyisoquinolin-1-yl)oxy)-7-ethyl-9-methyl-14a-(((1-methylcyclopropyl)sulfonyl)carbamoyl)-5,16-dioxo-2,3,5,6,7,9,10,11,13a,14,14a,15,16,16a-tetradecahydro-1H-cyclopropa[i]pyrrolo[1,2-e][1,5,8]oxadiazacyclopentadecin-6-yl)carbamate] |  | 0.51 to 1 nM |  | 0.1 to 0.5 nM |
| CC[C@@H]1O[C@H](C)CC/C=C\[C@@H]2C[C@@]2(C(=O)NS(=O)(=O)C2(C)CC2)NC(=O)[C@@H]2C[C@@H](Oc3ncc(OC)c4ccccc34)CN2C(=O)[C@H]1NC(=O)OC(C)(C)C(F)(F)F [Compound 1003] |  | 0.51 to 1 nM |  | 0.1 to 0.5 nM |
| CC[C@@H]1O[C@H](C)CC/C=C\[C@@H]2C[C@@]2(C(=O)NS(=O)(=O)C2CC2)NC(=O)[C@@H]2C[C@@H](Oc3ncc(OC)c4ccccc34)CN2C(=O)[C@H]1NC(=O)OC(C)(C)C(F)(F)F [Compound 1004, 1,1,1-trifluoro-2-methylpropan-2-yl ((2R,6S,7S,9R,13aS,14aR,16aS,Z)-14a-((cyclopropylsulfonyl)carbamoyl)-7-ethyl-2-((4-methoxyisoquinolin-1-yl)oxy)-9-methyl-5,16-dioxo-2,3,5,6,7,9,10,11,13a,14,14a,15,16,16a-tetradecahydro-1H-cyclopropa[i]pyrrolo[1,2-e][1,5,8]oxadiazacyclopentadecin-6-yl)carbamate] |  | 0.51 to 1 nM |  | 0.1 to 0.5 nM |
| CC[C@@H]1OCCC/C=C\[C@@H]2C[C@@]2(C(=O)NS(=O)(=O)C2(C)CC2)NC(=O)[C@@H]2C[C@@H](Oc3nccc4cc(OC)ccc34)CN2C(=O)[C@H]1NC(=O)OC(C)(C)C(F)(F)F [Compound 1005] |  | 1.01 to 5 nM |  | 0.51 to 1 nM |
| CC[C@@H]1O[C@H](C)CC/C=C\[C@@H]2C[C@@]2(C(=O)NS(=O)(=O)C2(C)CC2)NC(=O)[C@@H]2C[C@@H](Oc3nccc4cc(OC)ccc34)CN2C(=O)[C@H]1NC(=O)OC(C)(C)C(F)(F)F [Compound 1006] |  | 1.01 to 5 nM |  | 0.1 to 0.5 nM |
| CC[C@@H]1O[C@H](C)CC/C=C\[C@@H]2C[C@@]2(C(=O)NS(=O)(=O)C2CC2)NC(=O)[C@@H]2C[C@@H](Oc3nccc4cc(OC)ccc34)CN2C(=O)[C@H]1NC(=O)OC(C)(C)C(F)(F)F [Compound 1007, 1,1,1-trifluoro-2-methylpropan-2-yl ((2R,6S,7S,9R,13aS,14aR,16aS,Z)-14a-((cyclopropylsulfonyl)carbamoyl)-7-ethyl-2-((6-methoxyisoquinolin-1-yl)oxy)-9-methyl-5,16-dioxo-2,3,5,6,7,9,10,11,13a,14,14a,15,16,16a-tetradecahydro-1H-cyclopropa[i]pyrrolo[1,2-e][1,5,8]oxadiazacyclopentadecin-6-yl)carbamate] |  | 1.01 to 5 nM |  | 0.51 to 1 nM |
| CC[C@@H]1O[C@H](C)CC/C=C\[C@@H]2C[C@@]2(C(=O)NS(=O)(=O)C2CC2)NC(=O)[C@@H]2C[C@@H](Oc3nc(OC)cc4cc(OC)ccc34)CN2C(=O)[C@H]1NC(=O)OC(C)(C)C(F)(F)F [Compound 1008, 1,1,1-trifluoro-2-methylpropan-2-yl ((2R,6S,7S,9R,13aS,14aR,16aS,Z)-14a-((cyclopropylsulfonyl)carbamoyl)-2-((3,6-dimethoxyisoquinolin-1-yl)oxy)-7-ethyl-9-methyl-5,16-dioxo-2,3,5,6,7,9,10,11,13a,14,14a,15,16,16a-tetradecahydro-1H-cyclopropa[i]pyrrolo[1,2-e][1,5,8]oxadiazacyclopentadecin-6-yl)carbamate] | 0.41 nM | 0.1 to 0.5 nM | 0.28 nM | 0.1 to 0.5 nM |
| CC[C@@H]1OCCC/C=C\[C@@H]2C[C@@]2(C(=O)NS(=O)(=O)C2(C)CC2)NC(=O)[C@@H]2C[C@@H](Oc3nccc4cc(OC)c(F)cc34)CN2C(=O)[C@H]1NC(=O)OC(C)(C)C(F)(F)F [Compound 1009] |  | 1.01 to 5 nM |  | 1.01 to 5 nM |
| CC[C@@H]1OCCC/C=C\[C@@H]2C[C@@]2(C(=O)NS(=O)(=O)C2(C)CC2)NC(=O)[C@@H]2C[C@@H](Oc3nc(OC)cc4cc(OC)ccc34)CN2C(=O)[C@H]1NC(=O)OC(C)(C)C(F)(F)F [Compound 1010, 1,1,1-trifluoro-2-methylpropan-2-yl ((2R,6S,7S,13aS,14aR,16aS,Z)-2-((3,6-dimethoxyisoquinolin-1-yl)oxy)-7-ethyl-14a-(((1-methylcyclopropyl)sulfonyl)carbamoyl)-5,16-dioxo-2,3,5,6,7,9,10,11,13a,14,14a,15,16,16a-tetradecahydro-1H-cyclopropa[i]pyrrolo[1,2-e][1,5,8]oxadiazacyclopentadecin-6-yl)carbamate] |  | 0.51 to 1 nM |  | 1.01 to 5 nM |
| CC[C@@H]1OCCC/C=C\[C@@H]2C[C@@]2(C(=O)NS(=O)(=O)C2(C)CC2)NC(=O)[C@@H]2C[C@@H](Oc3ncc(OC)c4ccccc34)CN2C(=O)[C@H]1NC(=O)OC(C)(C)C(F)(F)F [Compound 1011] |  | 0.51 to 1 nM |  | 0.51 to 1 nM |
| CC[C@@H]1O[C@H](C)CC/C=C\[C@@H]2C[C@@]2(C(=O)NS(=O)(=O)C2(CF)CC2)NC(=O)[C@@H]2C[C@@H](Oc3nccc4cc(OC)c(F)cc34)CN2C(=O)[C@H]1NC(=O)OC(C)(C)C(F)(F)F [Compound 1012] |  | 1.01 to 5 nM |  | 1.01 to 5 nM |
| CC[C@@H]1O[C@H](C)CC/C=C\[C@@H]2C[C@@]2(C(=O)NS(=O)(=O)C2(CF)CC2)NC(=O)[C@@H]2C[C@@H](Oc3nc(OC)cc4cc(OC)ccc34)CN2C(=O)[C@H]1NC(=O)OC(C)(C)C(F)(F)F [Compound 1013, 1,1,1-trifluoro-2-methylpropan-2-yl ((2R,6S,7S,9R,13aS,14aR,16aS,Z)-2-((3,6-dimethoxyisoquinolin-1-yl)oxy)-7-ethyl-14a-(((1-(fluoromethyl)cyclopropyl)sulfonyl)carbamoyl)-9-methyl-5,16-dioxo-2,3,5,6,7,9,10,11,13a,14,14a,15,16,16a-tetradecahydro-1H-cyclopropa[i]pyrrolo[1,2-e][1,5,8]oxadiazacyclopentadecin-6-yl)carbamate] |  | 1.01 to 5 nM |  | 1.01 to 5 nM |
| CC[C@@H]1O[C@H](C)CC/C=C\[C@@H]2C[C@@]2(C(=O)NS(=O)(=O)C2(CF)CC2)NC(=O)[C@@H]2C[C@@H](Oc3ncc(OC)c4ccccc34)CN2C(=O)[C@H]1NC(=O)OC(C)(C)C(F)(F)F [Compound 1014] |  | 1.01 to 5 nM |  | 1.01 to 5 nM |
